Results: PMC7072517 (Biomolecules, 2020)
One block for each compound: values may come before it.

Experiments:
[1] = target: T1, soluble epoxide hydrolase (sEH) (Homo sapiens, UniProt P34913); assay: sEH enzyme kinetics (Lineweaver–Burk and Dixon plots); type: biochemical; settings: for Binding Mode (inhibition type): Lineweaver–Burk plot, substrate 1–12.5 µM
T1 construct: purchased Cayman (Ann Arbor, MI, USA) 10011669
T1 sequence (P34913 1-555): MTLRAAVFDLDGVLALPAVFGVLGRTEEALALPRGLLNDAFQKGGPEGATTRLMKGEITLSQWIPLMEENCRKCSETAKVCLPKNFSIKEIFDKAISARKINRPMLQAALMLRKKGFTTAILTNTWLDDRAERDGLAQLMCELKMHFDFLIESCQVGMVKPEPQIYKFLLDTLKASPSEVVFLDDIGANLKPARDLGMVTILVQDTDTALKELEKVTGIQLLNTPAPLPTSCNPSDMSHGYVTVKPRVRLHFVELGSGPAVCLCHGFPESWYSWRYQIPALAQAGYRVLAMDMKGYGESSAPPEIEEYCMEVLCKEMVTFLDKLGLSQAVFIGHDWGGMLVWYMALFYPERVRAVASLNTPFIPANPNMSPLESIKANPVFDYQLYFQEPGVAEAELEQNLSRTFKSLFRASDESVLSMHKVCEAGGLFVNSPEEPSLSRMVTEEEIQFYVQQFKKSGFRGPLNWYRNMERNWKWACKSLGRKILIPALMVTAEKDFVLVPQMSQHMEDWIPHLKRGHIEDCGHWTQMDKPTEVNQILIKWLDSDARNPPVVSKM
Experimental: (§1) sEH (130 µL, ~16 ng/mL) in 25 mM bis-Tris-HCl buffer (pH 7.0) containing 0.1% BSA and 20 µL of compound in MeOH was mixed in a 96-well plate, followed by the addition of 50 µL buffer containing 5 µM PHOME. The reactions were carried out at 37°C for 40 min. The inhibitory ratio was calculated according to the following equations: Inhibitory activityrate (%) = [[…]] × 100(1) where ΔC andΔS represent the intensity of control and inhibitor after 40 min, respectively. y = y0 + [(a × x)/(b + x)](2) where y0 is the minimum value on the y-axis, a denotes the difference between maximum and minimum values, and b refers to the x value at 50%.
The inverse of these concentrations and v0 values were used for the Lineweaver–Burk plot. […] Furthermore, the Dixon plot is represented by the modified Lineweaver–Burk plot.

[2] = target: T1, soluble epoxide hydrolase (sEH); settings: cited from earlier work
[3] = target: T1, soluble epoxide hydrolase (sEH); assay: sEH inhibition assay (PHOME substrate, fluorescence); type: biochemical; settings: 5 µM PHOME, 37°C, 40 min, pH 7.0; n = 3; read-out: IC50, inhibitory activity on sEH (converted)
Experimental: as §1, with “The” for “sEH (130 µL, ~16 ng/mL) in 25 mM bis-Tris-HCl buffer (pH 7.0) containing 0.1% BSA and 20 µL of compound in MeOH was mixed in a 96-well plate, followed by the addition of 50 µL buffer containing 5 µM PHOME. The”

[4] = design: method as in PMID 19794443; settings: cited from earlier work

Binding Mode (inhibition type) [1]: Non-competitive type
Structure (SMILES): COc1cc(-c2cc(=O)c3c(O)cc(O)cc3o2)ccc1O [compound 1, chrysoeriol]

Structure (SMILES): O=c1c(O[C@@H]2O[C@H](CO)[C@H](O)[C@H](O)[C@H]2O)c(-c2ccc(O)c(O)c2)oc2cc(O)cc(O)c12 [quercetin-3-O-β-D-galactoside]
inhibition type on sEH [2]: non-competitive

Structure (SMILES): COc1cc(O)c2c(=O)c(OC)c(-c3ccc(O[C@@H]4O[C@H](CO)[C@@H](O)[C@H](O)[C@H]4O[C@@H]4OCC(O)(CO)[C@H]4O)c(OC)c3)oc2c1 (stereo partly drawn) [3,7,3′-tri-O-methylquercetin-4′-O-β-D-apiofuranosyl-(1→2)-O-β-D-glucopyranoside]
inhibition type on sEH [2]: non-competitive

Ki ([1]; Dixon plot): 26.5 µM | Binding Mode (inhibition type) [1]: Non-competitive type | IC50 [3]: 32.1 µM
Structure (SMILES): O=c1cc(-c2ccc(O)c(O)c2)oc2cc(O[C@@H]3O[C@H](CO)[C@@H](O)[C@H](O)[C@H]3O)cc(O)c12 [compound 2, luteolin-7-O-glucopyranoside]

Structure (SMILES): O=C(O)CCCCCCCCCCCNC(=O)NC12CC3CC(CC(C3)C1)C2 [AUDA, 12-(3-adamantan-1-yl-ureido)dodecanoic acid]
solubility [4]: low

Structure (SMILES): O=c1c(O)c(-c2ccc(O)cc2)oc2cc(O)cc(O)c12 [kaempferol]
inhibition type on sEH [2]: non-competitive

Structure (SMILES): O=c1cc(-c2ccc(O)cc2)oc2cc(O)cc(O)c12 [apigenin]
inhibition type on sEH [2]: non-competitive
